Key:
[1] = target: NV 3CLpro (codon-optimized, full-length, N-terminal 6 His, recombinant) (Norovirus, UniProt Q83883); format: biochemical, Norwalk virus (human norovirus GI)
[2] = system: FIPV; test: Cell-based screening, FIPV in CRFK cells (Example 2); design: species or system feline infectious peritonitis virus; conditions: Alphacoronavirus 1; CRFK cells; read-out: Inhibition [ED50 (μM)] against various viruses: Coronavirus, FIPV
Description: (§1) 3. Cell-based screening of inhibitor. The effects of each inhibitor on the viral replication were examined. The list of viruses and corresponding cell lines are listed above in Table 2. Briefly, confluent cells were inoculated with virus at a MOI of 5 or 0.05 for 1 hr, and medium was replaced with medium containing mock-medium or each compound (up to 100 μM). The virus infected cells were further incubated for up to 96 hrs, and the replication of virus was measured by TCID50 assay with the 10-fold dilution of each sample used for virus titration (Reed and Muench, 1938). In some viruses, the virus protein and genome expression levels were detected by Western blot analysis and real-time qRT-PCR, respectively, as described below. The IC50s of the compounds were calculated.

[3] = system: TGEV; test: Cell-based screening, TGEV in ST cells (Example 2); design: species or system transmissible gastroenteritis virus; conditions: Alphacoronavirus 1; ST cells; read-out: Inhibition [ED50 (μM)] against various viruses: Coronavirus, TGEV
Description: as §1

[4] = system: EV71; test: Cell-based screening, EV71 in Vero cells (Example 2); design: species or system enterovirus 71; conditions: Enterovirus A, EV71; Vero cells; read-out: Inhibition [ED50 (μM)] against various viruses: Picornavirus, EV71
Description: as §1

[5] = system: HG23 cells; conditions: human

NV 3CLpro (codon-optimized, full-length, N-terminal 6 His, recombinant), sequence (Q83883 1101-1281): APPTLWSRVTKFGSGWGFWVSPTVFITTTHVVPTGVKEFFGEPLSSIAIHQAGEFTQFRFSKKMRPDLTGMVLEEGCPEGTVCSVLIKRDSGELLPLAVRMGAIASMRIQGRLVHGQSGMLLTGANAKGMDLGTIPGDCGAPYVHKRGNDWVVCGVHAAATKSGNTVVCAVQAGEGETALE

**Q.** Which IC50 [1] does the source give for `CC(C)C[C@H](NC(=O)OCc1ccccc1)C(=O)N[C@H](C=O)C[C@@H]1CCNC1=O` [GC373] here?
**A.** 640 nM

**Q.** What about the EC50 [2] of the same molecule?
**A.** 0.3 µM

**Q.** What about the EC50 [3] of the same molecule?
**A.** 0.3 µM

**Q.** And the EC50 [4]?
**A.** 11 µM

**Q.** What about the “TD50, median toxic dose” value [5] of the same molecule?
**A.** > 320 µM

From patent US9474759B2 (priority 2011, dated 2016)
